Measured values from patent publication US10016382B2, “Method for decreasing skeletal muscle damage and/or oxidative stress in mammals” (LONZA INC., priority 2014, dated 2018).

Experiment: Body composition by GE Prodigy DEXA scan, Example 1
Format: in vivo, dog
Conditions: for % Fat, Mean / BMC, Mean / Lean Mass, Mean / Total Mass, Mean: Table 14; for BMC-Change / Lean Mass-Change / Total Mass-Change / BMC-Final / BMC-Initial / Lean Mass-Final / Lean Mass-Initial / Total Mass-Final / Total Mass-Initial: Table 20, mean ± SEM; for BMC-Change / Lean Mass-Change / Total Mass-Change: beginning to completion of study
Description: Forty Labrador Retrievers were divided into two equal groups of twenty (11 males, 9 females) based on gender, body weight (“BW”), genetics, and lean mass and fed a low L-carnitine basal diet for a 90 day feeding period. The experimental dogs were fed the low L-carnitine basal for 10 days prior to the start of the study. Twenty of the Labs received 250 mg/day of L-carnitine (batch D22312) and 3.75 g of sugar and twenty of the Labs received 4 g/d of sugar. The dogs were scanned with a GE Prodigy DEXA system immediately prior to beginning of the study and the determined lean mass was utilized as a key component for helping assort the dogs equally between the control and L-carnitine group. A serum sample was obtained from each dog to determine a baseline value for blood biomarkers that were used to evaluate muscle damage and antioxidant status. The L-carnitine and control performance dogs were put through a weekly running program consisting of running sprint type shorter runs of higher intensity twice weekly (1200 yds/session increasing to 2400 yds/session over 10 wk period) and running endurance longer runs one time per wk (increasing from 5 miles/session to 10 miles per session over a 10 wk period). Each performance dog also wore the Actical activity monitor during the last endurance run. The dogs were put through a 15 mile run that included mud, water, tall grass, and swimming. The dogs were timed when they completed the course. The dogs were encouraged by kennel staff that rode along in a 4 wheel all terrain type vehicle during all of the endurance runs. […] Immediately following the 15 mile endurance run, each dog was placed in a kennel and evaluated for recovery time for body temperature (every 15 minutes for 2 hr) and heart rate (every 2 minutes for 14 minutes). Twenty four hours after test dogs ran the last 15 endurance run, post-run serum samples were taken to evaluate biomarkers for muscle damage and antioxidant status. Each test dog was also scanned with the GE Prodigy DEXA to determine body composition change that occurred during the course of the 13 wk study. Body Scans: Each dog was scanned for body composition with a GE Prodigy Pro Fan beam instrument during the week prior to the beginning of the 90 day study and the first working day following the last endurance run. Body composition values were determined for % lean mass, % fat mass, and % bone ash for each dog. The difference in body composition was determined by comparing the beginning scan and last scan for each test dog. The final scans were completed 24 hr post run.

C[N+](C)(C)C[C@H](O)CC(=O)[O-] [L-carnitine]
Lean mass over the study (Ex.1, 250 mg/d, DEXA, initial vs final, either group): No increase in lean mass | Increase in % fat mass (Ex.1, 250 mg/d, females, beginning to end of study, vs 8.9% control females (p=0.22)): 4.2% | Increase in fat (Ex.1, 250 mg/d, females, over 90 day study, unpaired t-test (Table 20), vs 9% control females (p=0.30)): 5.8% | Fat mass at the end of the study (Ex.1, 250 mg/d, females, vs 11.1 lbs control (p=0.29)): 8.9 lbs | BMC Least Sq Mean (F, Final): 820.2 g | Fat Least Sq Mean (F, Final): 8.892 lbs | Fat Percentage Least Sq Mean (F, Final): 16.32 | Lean Mass Least Sq Mean (F, Final): 45.62 lbs | Total Mass Least Sq Mean (F, Final): 54.51 lbs | BMC Least Sq Mean (F, Initial): 766.5 g | Fat Least Sq Mean (F, Initial): 5.631 lbs | Fat Percentage Least Sq Mean (F, Initial): 11.03 | Lean Mass Least Sq Mean (F, Initial): 45.83 lbs | Total Mass Least Sq Mean (F, Initial): 51.14 lbs | BMC Least Sq Mean (Final): 861.6 g | Fat Least Sq Mean (Final): 8.558 lbs | Fat Percentage Least Sq Mean (Final): 14.52 | Lean Mass Least Sq Mean (Final): 49.83 lbs | Total Mass Least Sq Mean (Final): 58.39 lbs | BMC Least Sq Mean (Initial): 784.2 g | Fat Least Sq Mean (Initial): 5.779 lbs | Fat Percentage Least Sq Mean (Initial): 10.31 | Lean Mass Least Sq Mean (Initial): 49.87 lbs | Total Mass Least Sq Mean (Initial): 55.49 lbs | BMC Least Sq Mean (M, Final): 903 g | Fat Least Sq Mean (M, Final): 8.225 lbs | Fat Percentage Least Sq Mean (M, Final): 12.73 | Lean Mass Least Sq Mean (M, Final): 54.04 lbs | Total Mass Least Sq Mean (M, Final): 62.27 lbs | BMC Least Sq Mean (M, Initial): 801.8 g | Fat Least Sq Mean (M, Initial): 5.927 lbs | Fat Percentage Least Sq Mean (M, Initial): 9.582 | Lean Mass Least Sq Mean (M, Initial): 53.9 lbs | Total Mass Least Sq Mean (M, Initial): 59.83 lbs | % Fat, Mean (Sex F, Final): 16.3% | BMC, Mean (Sex F, Final): 820 g | Lean Mass, Mean (Sex F, Final): 45.6 lb | Total Mass, Mean (Sex F, Final): 54.5 lb | % Fat, Mean (Sex F, Initial): 12.1% | BMC, Mean (Sex F, Initial): 764 g | Lean Mass, Mean (Sex F, Initial): 44.7 lb | Total Mass, Mean (Sex F, Initial): 50.8 lb | % Fat, Mean (Sex M, Final): 12.7% | BMC, Mean (Sex M, Final): 903 g | Lean Mass, Mean (Sex M, Final): 54.0 lb | Total Mass, Mean (Sex M, Final): 62.3 lb | % Fat, Mean (Sex M, Initial): 9.6% | BMC, Mean (Sex M, Initial): 802 g | Lean Mass, Mean (Sex M, Initial): 53.9 lb | Total Mass, Mean (Sex M, Initial): 59.8 lb | % Fat, Mean (all dogs, Final): 14.3% | BMC, Mean (all dogs, Final): 866 g | Lean Mass, Mean (all dogs, Final): 50.3 lb | Total Mass, Mean (all dogs, Final): 58.8 lb | % Fat, Mean (all dogs, Initial): 10.6% | BMC, Mean (all dogs, Initial): 787 g | Lean Mass, Mean (all dogs, Initial): 50.3 lb | Total Mass, Mean (all dogs, Initial): 56.3 lb | BMC-Change (all dogs): 82 ± 46 n = 20 g | Lean Mass-Change (all dogs): 0.1 ± 0.3 n = 20 lb | Total Mass-Change (all dogs): 3.4 ± 0.8 n = 20 lb | BMC-Final (all dogs): 866 ± 26 n = 20 g | BMC-Initial (all dogs): 784 ± 44 n = 20 g | Lean Mass-Final (all dogs): 50.3 ± 1.5 n = 20 lb | Lean Mass-Initial (all dogs): 50.2 ± 1.5 n = 20 lb | Total Mass-Final (all dogs): 58.8 ± 1.7 n = 20 lb | Total Mass-Initial (all dogs): 55.3 ± 1.7 n = 20 lb | BMC-Change (♀): 58 ± 11 n = 9 g | Lean Mass-Change (♀): 0 ± 0.5 n = 9 lb | Total Mass-Change (♀): 4.7 ± 1.5 n = 9 lb | BMC-Final (♀): 820 ± 19 n = 9 g | BMC-Initial (♀): 762 ± 18 n = 9 g | Lean Mass-Final (♀): 45.6 ± 1.7 n = 9 lb | Lean Mass-Initial (♀): 45.7 ± 1.3 n = 9 lb | Total Mass-Final (♀): 54.5 ± 1.4 n = 9 lb | Total Mass-Initial (♀): 49.8 ± 1.1 n = 9 lb | BMC-Change (♂): 101 ± 84 n = 11 g | Lean Mass-Change (♂): 0.1 ± 0.5 n = 11 lb | Total Mass-Change (♂): 2.4 ± 0.6 n = 11 lb | BMC-Final (♂): 903 ± 42 n = 11 g | BMC-Initial (♂): 802 ± 80 n = 11 g | Lean Mass-Final (♂): 54 ± 1.7 n = 11 lb | Lean Mass-Initial (♂): 53.9 ± 1.8 n = 11 lb | Total Mass-Final (♂): 62.3 ± 2.6 n = 11 lb | Total Mass-Initial (♂): 59.8 ± 2.2 n = 11 lb | BMC Least Sq Mean (Treatment * Sex, F): 766.5 g | Fat Least Sq Mean (Treatment * Sex, F): 7.261 lbs | Fat Percentage Least Sq Mean (Treatment * Sex, F): 11.03 | Lean Mass Least Sq Mean (Treatment * Sex, F): 45.83 lbs | Total Mass Least Sq Mean (Treatment * Sex, F): 51.14 lbs | BMC Least Sq Mean (Treatment * Sex, M): 801.8 g | Fat Least Sq Mean (Treatment * Sex, M): 7.076 lbs | Fat Percentage Least Sq Mean (Treatment * Sex, M): 9.582 | Lean Mass Least Sq Mean (Treatment * Sex, M): 53.9 lbs | Total Mass Least Sq Mean (Treatment * Sex, M): 59.83 lbs | BMC Least Sq Mean (Treatment level, all dogs): 784.2 g | Fat Least Sq Mean (Treatment level, all dogs): 7.169 lbs | Fat Percentage Least Sq Mean (Treatment level, all dogs): 10.31 | Lean Mass Least Sq Mean (Treatment level, all dogs): 49.87 lbs | Total Mass Least Sq Mean (Treatment level, all dogs): 55.49 lb | Body mineral content (BMC), mixed model Estimate, term Treatment[L-carnitine] (model term): −22.85 | Body mineral content (BMC), mixed model Estimate, term Treatment[L-carnitine] * Sex[F] (model term): 37.64 | Body mineral content (BMC), mixed model Estimate, term Treatment[L-carnitine] * Sex[F] * Time[Final-Initial] (model term): −17.19 | Body mineral content (BMC), mixed model Estimate, term Treatment[L-carnitine] * Time[Final-Initial] (model term): 6.762 | Fat mass, mixed model Estimate, term Treatment[L-carnitine] (model term): −0.2546 | Fat mass, mixed model Estimate, term Treatment[L-carnitine] * Sex[F] (model term): −0.1764 | Fat mass, mixed model Estimate, term Treatment[L-carnitine] * Sex[F] * Time[Initial] (model term): 0.331 | Fat mass, mixed model Estimate, term Treatment[L-carnitine] * Time[Initial] (model term): 0.3408 | Fat percentage, mixed model Estimate, term Treatment[L-carnitine] (model term): 0.1573 | Fat percentage, mixed model Estimate, term Treatment[L-carnitine] * Sex[F] (model term): 0.281 | Fat percentage, mixed model Estimate, term Treatment[L-carnitine] * Sex[F] * Time[Final-Initial] (model term): −0.9515 | Fat percentage, mixed model Estimate, term Treatment[L-carnitine] * Time[Final-Initial] (model term): −0.8868 | Lean mass, mixed model Estimate, term Treatment[L-carnitine] (model term): −0.3966 | Lean mass, mixed model Estimate, term Treatment[L-carnitine] * Sex[F] (model term): 0.618 | Lean mass, mixed model Estimate, term Treatment[L-carnitine] * Sex[F] * Time[Final-Initial] (model term): 0.1808 | Lean mass, mixed model Estimate, term Treatment[L-carnitine] * Time[Final-Initial] (model term): −0.234 | Total Body Mass, mixed model Estimate, term Treatment[L-carnitine] (model term): −0.3536 | Total Body Mass, mixed model Estimate, term Treatment[L-carnitine] * Sex[F] (model term): 0.6569 | Total Body Mass, mixed model Estimate, term Treatment[L-carnitine] * Sex[F] * Time[Final-Initial] (model term): −0.3655 | Total Body Mass, mixed model Estimate, term Treatment[L-carnitine] * Time[Final-Initial] (model term): −0.8724
